Results on 19 molecules are retold here after patent US7608619B2, “Substituted oxazole compounds with analgesic activity” (Gruenenthal GmbH, priority 2005, dated 2009).

Structures are written as SMILES.

For orientation: inhibition means the change of the read-out against control, counted positive when it falls.

In the experiment the target is T1, human μ-opiate receptor (Homo sapiens, UniProt P35372).
T1 construct: purchased Nen company, Zaventem, Belgium RB-HOM; host or cells: CHO-K1 cells (membrane preparation)
T1 sequence (P35372 whole entry): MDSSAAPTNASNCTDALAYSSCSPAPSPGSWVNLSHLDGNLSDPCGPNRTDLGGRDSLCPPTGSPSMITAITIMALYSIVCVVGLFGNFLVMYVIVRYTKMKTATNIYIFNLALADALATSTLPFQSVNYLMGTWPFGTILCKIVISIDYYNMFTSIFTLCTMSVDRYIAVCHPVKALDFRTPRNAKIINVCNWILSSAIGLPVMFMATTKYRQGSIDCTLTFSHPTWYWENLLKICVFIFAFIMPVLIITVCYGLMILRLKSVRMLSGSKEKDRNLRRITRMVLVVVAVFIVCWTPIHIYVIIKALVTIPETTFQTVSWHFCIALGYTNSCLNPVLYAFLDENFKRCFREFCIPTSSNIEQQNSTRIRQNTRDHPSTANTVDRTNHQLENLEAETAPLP
Nature of the experiment: Affinity for the human μ-opiate receptor ([3H]-naloxone displacement, SPA, CHO-K1 membrane preparation). To be noted: test substance 1 μmole/l; displacement of 1 nmole/l [3H]-naloxone; percentage inhibition of the specific binding; read-out: μ-opioid receptor, % inhibition [1 μM]. The method, boiled down:
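[3H]-naloxone (1 nmol/l) displacement by SPA with WGA beads, using membranes of CHO-K1 cells expressing the receptor, in 50 mmol/l Tris-HCl with 0.05% azide and 0.06% BSA; 90 min at room temperature. Non-specific binding defined with 25 μmol/l naloxone. Value is % inhibition of specific binding at 1 μmol/l test compound.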
Turning to `CC1CN(c2oc(C(C3CCC(C(c4cccs4)N(C)C)CC3)N3CCc4ccccc4C3)nc2Cc2ccccc2)CC(C)O1` (stereo not shown) [compound 148, ({4-[[4-benzyl-5-(2,6-dimethylmorpholin-4-yl)-oxazol-2-yl]-(3,4-dihydro-1H-isoquinolin-2-yl)-methyl]-cyclohexyl}-thiophen-2-yl-methyl)-dimethylamine], the inhibition at 1 µM came out at 84%.

As for `CN(C)C(c1cccc(F)c1)C1CCC(CC(c2nc(Cc3ccccc3)c(N3CCCC3)o2)N2CCOCC2)CC1` (stereo not shown) [compound 149, [{4-[2-(4-benzyl-5-pyrrolidin-1-yl-oxazol-2-yl)-2-morpholin-4-yl-ethyl]-cyclohexyl}-(3-fluorophenyl)-methyl]-dimethylamine], the inhibition at 1 µM is 87%. Next, `CN(C)C(c1cccc(F)c1)C1CCC(CC(c2nc(Cc3ccccc3)c(N3CCOCC3)o2)N2CCOCC2)CC1` (stereo not shown) [compound 150, [{4-[2-(4-benzyl-5-morpholin-4-yl-oxazol-2-yl)-2-morpholin-4-yl-ethyl]-cyclohexyl}-(3-fluorophenyl)-methyl]-dimethylamine]: 75%; `COc1ccc(N2CCN(c3oc(C(CC4CCC(C(c5cccc(F)c5)N(C)C)CC4)N4CCOCC4)nc3Cc3ccccc3)CC2)cc1` (stereo not shown) [compound 151, [[4-(2-{4-benzyl-5-[4-(4-methoxyphenyl)-piperazin-1-yl]-oxazol-2-yl}-2-morpholin-4-yl-ethyl)-cyclohexyl]-(3-fluorophenyl)-methyl]-dimethylamine]: 89%.

In the case of `CC1CN(c2oc(C(CC3CCC(C(c4cccc(F)c4)N(C)C)CC3)N3CCOCC3)nc2Cc2ccccc2)CC(C)O1` (stereo not shown) [compound 152, [(4-{2-[4-benzyl-5-(2,6-dimethylmorpholin-4-yl)-oxazol-2-yl]-2-morpholin-4-yl-ethyl}-cyclohexyl)-(3-fluorophenyl)-methyl]-dimethylamine], the inhibition at 1 µM came out at 65%. The result for `CC1CN(c2oc(C(CC3CCC(C(c4cccc(F)c4)N(C)C)CC3)N3CCN(c4ccc(F)cc4)CC3)nc2Cc2ccccc2)CC(C)O1` (stereo not shown) [compound 153, [(4-{2-[4-benzyl-5-(2,6-dimethylmorpholin-4-yl)-oxazol-2-yl]-2-[4-(4-fluorophenyl)-piperazin-1-yl]-ethyl}-cyclohexyl)-(3-fluorophenyl)-methyl]-dimethylamine] reads 71%; that for `COc1ccc(N2CCN(C(CC3CCC(C(c4cccc(F)c4)N(C)C)CC3)c3nc(Cc4ccccc4)c(N4CCOCC4)o3)CC2)cc1` (stereo not shown) [compound 154, [(4-{2-(4-benzyl-5-morpholin-4-yl-oxazol-2-yl)-2-[4-(4-methoxy-phenyl)-piperazin-1-yl]-ethyl}-cyclohexyl)-(3-fluorophenyl)-methyl]-dimethylamine], 86%.

In the case of `COc1ccc(N2CCN(c3oc(C(CC4CCC(C(c5cccc(F)c5)N(C)C)CC4)N4CCN(c5ccc(OC)cc5)CC4)nc3Cc3ccccc3)CC2)cc1` (stereo not shown) [compound 155, [(4-{2-{4-benzyl-5-[4-(4-methoxyphenyl)-piperazin-1-yl]-oxazol-2-yl}-2-[4-(4-methoxyphenyl)-piperazin-1-yl]-ethyl}-cyclohexyl)-(3-fluorophenyl)-methyl]-dimethylamine], the inhibition at 1 µM came out at 82%.

On to `COc1ccc(N2CCN(C(CC3CCC(C(c4cccc(F)c4)N(C)C)CC3)c3nc(Cc4ccccc4)c(N4CC(C)OC(C)C4)o3)CC2)cc1` (stereo not shown) [compound 156, [(4-{2-[4-benzyl-5-(2,6-dimethylmorpholin-4-yl)-oxazol-2-yl]-2-[4-(4-methoxyphenyl)-piperazin-1-yl]-ethyl}-cyclohexyl)-(3-fluorophenyl)-methyl]-dimethylamine], for which the inhibition at 1 µM worked out at 74%. Next, `COc1ccc(N2CCN(c3oc(C(CC4CCC(C(c5cccc(F)c5)N(C)C)CC4)N4CCc5ccccc5C4)nc3Cc3ccccc3)CC2)cc1` (stereo not shown) [compound 157, [{4-[2-{4-benzyl-5-[4-(4-methoxy-phenyl)-piperazin-1-yl]-oxazol-2-yl}-2-(3,4-dihydro-1H-isoquinolin-2-yl)-ethyl]-cyclohexyl}-(3-fluorophenyl)-methyl]-dimethylamine]: 84%. Next, `CN(C)C(c1cccs1)C1CCC(CC(c2nc(Cc3ccccc3)c(N3CCOCC3)o2)N2CCOCC2)CC1` (stereo not shown) [compound 158, ({4-[2-(4-benzyl-5-morpholin-4-yl-oxazol-2-yl)-2-morpholin-4-yl-ethyl]-cyclohexyl}-thiophen-2-yl-methyl)-dimethylamine]: 83%. As for `COc1ccc(N2CCN(c3oc(C(CC4CCC(C(c5cccs5)N(C)C)CC4)N4CCOCC4)nc3Cc3ccccc3)CC2)cc1` (stereo not shown) [compound 159, {[4-(2-{4-benzyl-5-[4-(4-methoxyphenyl)-piperazin-1-yl]-oxazol-2-yl}-2-morpholin-4-yl-ethyl)-cyclohexyl]-thiophen-2-yl-methyl}-dimethylamine], the inhibition at 1 µM came out at 94%. The result for `CC1CN(c2oc(C(CC3CCC(C(c4cccs4)N(C)C)CC3)N3CCOCC3)nc2Cc2ccccc2)CC(C)O1` (stereo not shown) [compound 160, [(4-{2-[4-benzyl-5-(2,6-dimethyl-morpholin-4-yl)-oxazol-2-yl]-2-morpholin-4-yl-ethyl}-cyclohexyl)-thiophen-2-yl-methyl]-dimethylamine] reads 79%; that for `CN(C)C(c1cccs1)C1CCC(CC(c2nc(Cc3ccccc3)c(N3CCOCC3)o2)N2CCN(c3ccc(F)cc3)CC2)CC1` (stereo not shown) [compound 161, [(4-{2-(4-benzyl-5-morpholin-4-yl-oxazol-2-yl)-2-[4-(4-fluorophenyl)-piperazin-1-yl]-ethyl}-cyclohexyl)-thiophen-2-yl-methyl]-dimethylamine], 87%; that for `COc1ccc(N2CCN(c3oc(C(CC4CCC(C(c5cccs5)N(C)C)CC4)N4CCN(c5ccc(F)cc5)CC4)nc3Cc3ccccc3)CC2)cc1` (stereo not shown) [compound 162, [(4-{2-{4-benzyl-5-[4-(4-methoxy-phenyl)-piperazin-1-yl]-oxazol-2-yl}-2-[4-(4-fluorophenyl)-piperazin-1-yl]-ethyl}-cyclohexyl)-thiophen-2-yl-methyl]-dimethylamine], 96%.

With `COc1ccc(N2CCN(C(CC3CCC(C(c4cccs4)N(C)C)CC3)c3nc(Cc4ccccc4)c(N4CCCC4)o3)CC2)cc1` (stereo not shown) [compound 163, [(4-{2-(4-benzyl-5-pyrrolidin-1-yl-oxazol-2-yl)-2-[4-(4-methoxyphenyl)-piperazin-1-yl]-ethyl}-cyclohexyl)-thiophen-2-yl-methyl]-dimethylamine], the inhibition at 1 µM worked out at 83%. `COc1ccc(N2CCN(c3oc(C(CC4CCC(C(c5cccs5)N(C)C)CC4)N4CCN(c5ccc(OC)cc5)CC4)nc3Cc3ccccc3)CC2)cc1` (stereo not shown) [compound 164, [(4-{2-{4-benzyl-5-[4-(4-methoxyphenyl)-piperazin-1-yl]-oxazol-2-yl}-2-[4-(4-methoxyphenyl)-piperazin-1-yl]-ethyl}-cyclohexyl)-thiophen-2-yl-methyl]-dimethylamine]: the inhibition at 1 µM stood at 93%. Next, `COc1ccc(N2CCN(C(CC3CCC(C(c4cccs4)N(C)C)CC3)c3nc(Cc4ccccc4)c(N4CC(C)OC(C)C4)o3)CC2)cc1` (stereo not shown) [compound 165, [(4-{2-[4-benzyl-5-(2,6-dimethyl-morpholin-4-yl)-oxazol-2-yl]-2-[4-(4-methoxyphenyl)-piperazin-1-yl]-ethyl}-cyclohexyl)-thiophen-2-yl-methyl]-dimethylamine]: 93%; `COc1ccc(N2CCN(c3oc(C(CC4CCC(C(c5cccs5)N(C)C)CC4)N4CCc5ccccc5C4)nc3Cc3ccccc3)CC2)cc1` (stereo not shown) [compound 166, ({4-[2-{4-benzyl-5-[4-(4-methoxy-phenyl)-piperazin-1-yl]-oxazol-2-yl}-2-(3,4-dihydro-1H-isoquinolin-2-yl)-ethyl]-cyclohexyl}-thiophen-2-yl-methyl)-dimethylamine]: 78%.
